Source: patent US9340590B2 (priority 2011, dated 2016)
Where two headings read alike, the source gives them in different places. Positions of bridges follow the written chain, without caps; N, C: chain ends. Residues, ends and D or L forms follow the SMILES beside them.

Experiments:
Experiment in all cases: cell-based
hNav1.3 = hNav1.3 (Homo sapiens, UniProt Q9NY46); settings: IonWorks Quattro, read-out: IWQ Use Nav1.3
hNav1.5 = hNav1.5 (Homo sapiens, UniProt Q14524); settings: IonWorks Quattro, read-out: IWQ Use Nav1.5
hNav1.7 = hNav1.7 (Homo sapiens, UniProt Q15858); format: cell-based; settings: IonWorks Quattro, read-out: IWQ Use Nav1.7

hNav1.5, sequence (Q14524 whole entry, looked up): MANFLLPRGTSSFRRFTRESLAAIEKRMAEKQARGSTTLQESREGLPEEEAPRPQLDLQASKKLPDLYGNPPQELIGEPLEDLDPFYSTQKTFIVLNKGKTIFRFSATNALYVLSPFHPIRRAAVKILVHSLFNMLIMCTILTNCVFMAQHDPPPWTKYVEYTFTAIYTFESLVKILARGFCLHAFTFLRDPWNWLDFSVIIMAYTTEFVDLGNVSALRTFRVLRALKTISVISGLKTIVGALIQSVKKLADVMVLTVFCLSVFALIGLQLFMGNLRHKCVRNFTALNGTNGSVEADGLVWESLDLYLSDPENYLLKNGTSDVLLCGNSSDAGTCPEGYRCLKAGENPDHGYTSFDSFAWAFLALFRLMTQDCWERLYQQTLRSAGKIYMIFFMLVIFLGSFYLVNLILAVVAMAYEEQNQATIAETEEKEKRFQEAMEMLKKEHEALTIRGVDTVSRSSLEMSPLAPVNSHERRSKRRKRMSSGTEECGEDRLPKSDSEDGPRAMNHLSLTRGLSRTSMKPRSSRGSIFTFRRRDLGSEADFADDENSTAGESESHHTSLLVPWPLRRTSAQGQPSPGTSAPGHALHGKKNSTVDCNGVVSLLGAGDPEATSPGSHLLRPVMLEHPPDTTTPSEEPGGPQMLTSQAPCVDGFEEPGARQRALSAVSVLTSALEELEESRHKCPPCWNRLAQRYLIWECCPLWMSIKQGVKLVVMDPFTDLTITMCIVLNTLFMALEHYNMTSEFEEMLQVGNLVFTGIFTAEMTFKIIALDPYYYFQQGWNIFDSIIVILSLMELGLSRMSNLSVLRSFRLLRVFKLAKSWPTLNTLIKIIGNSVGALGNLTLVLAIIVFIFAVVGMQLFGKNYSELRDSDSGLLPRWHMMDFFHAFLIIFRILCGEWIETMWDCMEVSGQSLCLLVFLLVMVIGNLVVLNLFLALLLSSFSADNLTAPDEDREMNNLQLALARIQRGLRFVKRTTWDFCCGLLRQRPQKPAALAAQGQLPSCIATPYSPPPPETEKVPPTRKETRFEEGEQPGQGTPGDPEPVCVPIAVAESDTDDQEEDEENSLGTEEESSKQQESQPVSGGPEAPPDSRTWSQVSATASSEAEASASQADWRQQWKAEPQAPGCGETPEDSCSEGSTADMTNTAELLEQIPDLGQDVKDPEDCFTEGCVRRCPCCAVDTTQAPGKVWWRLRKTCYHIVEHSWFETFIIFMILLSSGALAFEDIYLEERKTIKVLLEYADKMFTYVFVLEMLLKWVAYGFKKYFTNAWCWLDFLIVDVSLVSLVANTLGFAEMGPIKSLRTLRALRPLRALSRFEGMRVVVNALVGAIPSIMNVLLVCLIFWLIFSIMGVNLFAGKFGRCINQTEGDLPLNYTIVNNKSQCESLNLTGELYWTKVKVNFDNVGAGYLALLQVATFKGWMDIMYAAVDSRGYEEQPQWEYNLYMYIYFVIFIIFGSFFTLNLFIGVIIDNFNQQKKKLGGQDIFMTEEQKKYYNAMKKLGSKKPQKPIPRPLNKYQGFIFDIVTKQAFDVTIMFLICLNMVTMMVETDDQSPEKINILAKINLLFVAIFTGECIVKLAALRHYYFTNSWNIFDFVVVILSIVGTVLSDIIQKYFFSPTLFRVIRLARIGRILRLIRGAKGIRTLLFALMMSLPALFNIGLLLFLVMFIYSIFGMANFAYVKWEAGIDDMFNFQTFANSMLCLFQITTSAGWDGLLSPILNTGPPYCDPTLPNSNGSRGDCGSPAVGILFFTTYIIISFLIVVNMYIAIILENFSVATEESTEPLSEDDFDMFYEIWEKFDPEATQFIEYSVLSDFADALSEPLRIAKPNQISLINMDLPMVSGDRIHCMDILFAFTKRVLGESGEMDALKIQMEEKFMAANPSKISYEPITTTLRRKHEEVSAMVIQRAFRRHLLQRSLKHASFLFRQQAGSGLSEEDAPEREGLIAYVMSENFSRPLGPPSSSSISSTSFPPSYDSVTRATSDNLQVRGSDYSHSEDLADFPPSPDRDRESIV
hNav1.3, sequence (Q9NY46 whole entry, looked up): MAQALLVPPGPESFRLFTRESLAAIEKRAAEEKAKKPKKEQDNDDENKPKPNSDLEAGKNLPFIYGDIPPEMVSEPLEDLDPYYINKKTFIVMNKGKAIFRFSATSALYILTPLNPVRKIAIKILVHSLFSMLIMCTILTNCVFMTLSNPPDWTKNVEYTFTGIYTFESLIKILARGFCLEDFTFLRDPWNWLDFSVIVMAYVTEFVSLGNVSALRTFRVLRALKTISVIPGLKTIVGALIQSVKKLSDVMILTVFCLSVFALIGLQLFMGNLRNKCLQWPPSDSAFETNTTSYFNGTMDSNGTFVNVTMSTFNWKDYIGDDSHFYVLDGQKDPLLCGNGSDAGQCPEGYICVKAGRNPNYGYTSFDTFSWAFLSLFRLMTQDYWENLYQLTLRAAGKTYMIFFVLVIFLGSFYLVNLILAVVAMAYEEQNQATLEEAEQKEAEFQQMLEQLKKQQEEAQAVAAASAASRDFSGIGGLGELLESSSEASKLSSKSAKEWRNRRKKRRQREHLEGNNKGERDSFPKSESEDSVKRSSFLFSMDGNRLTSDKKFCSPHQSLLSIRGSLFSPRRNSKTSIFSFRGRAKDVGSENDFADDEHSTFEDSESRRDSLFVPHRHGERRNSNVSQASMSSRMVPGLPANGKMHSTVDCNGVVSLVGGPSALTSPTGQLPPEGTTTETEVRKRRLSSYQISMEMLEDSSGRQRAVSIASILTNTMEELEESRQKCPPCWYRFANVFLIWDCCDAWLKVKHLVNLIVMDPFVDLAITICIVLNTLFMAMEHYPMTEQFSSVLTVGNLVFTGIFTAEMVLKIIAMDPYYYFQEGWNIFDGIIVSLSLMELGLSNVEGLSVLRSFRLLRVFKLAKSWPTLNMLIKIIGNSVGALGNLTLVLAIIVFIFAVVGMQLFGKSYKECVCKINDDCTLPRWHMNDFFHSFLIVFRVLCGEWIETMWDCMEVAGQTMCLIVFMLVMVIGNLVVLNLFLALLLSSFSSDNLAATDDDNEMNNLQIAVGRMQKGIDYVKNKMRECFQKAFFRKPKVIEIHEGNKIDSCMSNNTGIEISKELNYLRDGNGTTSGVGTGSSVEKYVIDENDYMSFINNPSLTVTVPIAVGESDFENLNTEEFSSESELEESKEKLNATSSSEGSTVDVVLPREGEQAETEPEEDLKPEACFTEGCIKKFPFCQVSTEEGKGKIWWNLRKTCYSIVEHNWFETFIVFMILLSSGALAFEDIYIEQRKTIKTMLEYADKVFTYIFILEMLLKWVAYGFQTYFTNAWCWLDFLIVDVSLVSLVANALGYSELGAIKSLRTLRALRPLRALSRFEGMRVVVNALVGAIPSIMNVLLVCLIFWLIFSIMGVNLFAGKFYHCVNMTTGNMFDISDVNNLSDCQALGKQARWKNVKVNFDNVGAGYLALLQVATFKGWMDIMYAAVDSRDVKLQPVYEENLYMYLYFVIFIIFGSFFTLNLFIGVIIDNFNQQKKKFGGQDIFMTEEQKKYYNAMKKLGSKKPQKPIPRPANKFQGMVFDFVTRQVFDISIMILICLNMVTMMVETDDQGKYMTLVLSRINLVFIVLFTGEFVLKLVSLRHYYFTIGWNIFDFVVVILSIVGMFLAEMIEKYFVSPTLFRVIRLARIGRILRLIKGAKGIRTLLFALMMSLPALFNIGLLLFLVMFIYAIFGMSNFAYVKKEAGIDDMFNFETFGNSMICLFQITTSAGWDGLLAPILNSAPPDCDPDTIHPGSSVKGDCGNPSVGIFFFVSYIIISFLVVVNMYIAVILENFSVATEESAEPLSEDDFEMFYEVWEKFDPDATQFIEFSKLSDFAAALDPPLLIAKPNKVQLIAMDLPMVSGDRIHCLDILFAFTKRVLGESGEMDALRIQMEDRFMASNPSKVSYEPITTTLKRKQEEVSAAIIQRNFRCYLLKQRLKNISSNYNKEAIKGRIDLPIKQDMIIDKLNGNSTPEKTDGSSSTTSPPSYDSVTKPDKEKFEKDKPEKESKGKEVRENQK

CC[C@H](C)[C@@H]1NC(=O)[C@@H]2CSSC[C@@H]3NC(=O)[C@H](C(C)C)NC(=O)[C@H](CC(C)C)NC(=O)[C@H](CC(N)=O)NC(=O)[C@@H]4CCCN4C(=O)[C@H](CCCNC(=N)N)NC(=O)[C@H](CSSC[C@H](NC(=O)[C@H](CC(=O)O)NC(=O)[C@H](CO)NC(=O)CN)C(=O)N[C@@H](CC(C)C)C(=O)NCC(=O)N[C@@H](C)C(=O)N[C@@H](Cc4ccccc4)C(=O)N[C@@H](CCCNC(=N)N)C(=O)N[C@@H](CCCCN)C(=O)N2)NC(=O)[C@H](CSSC[C@@H](C(=O)N[C@@H](CCCCN)C(=O)N[C@@H](Cc2ccc(O)cc2)C(=O)N[C@H](C(=O)N[C@@H](Cc2ccccc2)C(=O)O)C(C)C)NC(=O)[C@H](Cc2c[nH]c4ccccc24)NC(=O)[C@H](CCCNC(=N)N)NC(=O)[C@H](Cc2c[nH]cn2)NC(=O)[C@H]([C@@H](C)O)NC(=O)[C@H](CCCNC(=N)N)NC(=O)[C@H](CO)NC3=O)NC(=O)[C@H](CCCCN)NC(=O)[C@H](CC(=O)O)NC(=O)[C@H](CC(N)=O)NC(=O)[C@H](CC(=O)O)NC(=O)[C@@H]2CCCN2C1=O [compound 821] (H-GSDCLGAFRKCIPDNDKCCRPNLVCSRTHRWCKYVF-OH; disulfide 4-19, 11-25, 18-32)
IC50 (hNav1.3; use-dependent block, hNav1.3): 3.2 µM | IC50 (hNav1.5; use-dependent block, hNav1.5): > 5 µM | IC50 (hNav1.7; use-dependent block, hNav1.7): 3.2 µM

CC[C@H](C)[C@@H]1NC(=O)[C@@H]2CSSC[C@@H]3NC(=O)[C@H](C(C)C)NC(=O)[C@H](CC(C)C)NC(=O)[C@H](CC(N)=O)NC(=O)[C@@H]4CCCN4C(=O)[C@H](CCCNC(=N)N)NC(=O)[C@H](CSSC[C@H](NC(=O)[C@@H](N)CC(=O)O)C(=O)N[C@@H](CC(C)C)C(=O)NCC(=O)N[C@@H](C(C)C)C(=O)N[C@@H](CC(C)C)C(=O)N[C@@H](CCCNC(=N)N)C(=O)N[C@@H](CCCCN)C(=O)N2)NC(=O)[C@H](CSSC[C@@H](C(=O)N[C@@H](CCCCN)C(=O)N[C@@H](Cc2ccc(O)cc2)C(=O)N[C@H](C(=O)N[C@@H](Cc2ccccc2)C(N)=O)C(C)C)NC(=O)[C@H](Cc2c[nH]c4ccccc24)NC(=O)[C@H](CCC(=O)O)NC(=O)[C@H](Cc2c[nH]cn2)NC(=O)[C@H]([C@@H](C)O)NC(=O)[C@H](CCCNC(=N)N)NC(=O)[C@H](CO)NC3=O)NC(=O)[C@H](CCCCN)NC(=O)[C@H](CC(=O)O)NC(=O)[C@H](CC(N)=O)NC(=O)[C@H](CC(=O)O)NC(=O)[C@@H]2CCCN2C1=O [compound 709] (H-DCLGVLRKCIPDNDKCCRPNLVCSRTHEWCKYVF-NH2; disulfide 2-17, 9-23, 16-30)
IC50 (hNav1.3; use-dependent protocol, hNav1.3): 4.8 µM | IC50 (hNav1.5; use-dependent protocol, hNav1.5): 43 µM | IC50 (hNav1.7; use-dependent protocol, hNav1.7): 0.74 µM

CC[C@H](C)[C@@H]1NC(=O)[C@@H]2CSSC[C@@H]3NC(=O)[C@H](C(C)C)NC(=O)[C@H](CC(C)C)NC(=O)[C@H](CC(N)=O)NC(=O)[C@@H]4CCCN4C(=O)[C@H](CCCNC(=N)N)NC(=O)[C@H](CSSC[C@H](NC(=O)[C@@H](N)CC(=O)O)C(=O)N[C@@H](CC(C)C)C(=O)NCC(=O)N[C@@H](Cc4ccccc4)C(=O)N[C@@H](Cc4c[nH]c5ccccc45)C(=O)N[C@@H](CCCNC(=N)N)C(=O)N[C@@H](CCCCN)C(=O)N2)NC(=O)[C@H](CSSC[C@@H](C(=O)N[C@@H](CCCCN)C(=O)N[C@@H](Cc2c[nH]c4ccccc24)C(=O)N[C@H](C(=O)N[C@@H](Cc2ccccc2)C(N)=O)C(C)C)NC(=O)[C@H](Cc2c[nH]c4ccccc24)NC(=O)[C@H](CCCCN)NC(=O)[C@H](Cc2c[nH]cn2)NC(=O)[C@H]([C@@H](C)O)NC(=O)[C@H](CCCNC(=N)N)NC(=O)[C@H](CO)NC3=O)NC(=O)[C@H](CCCCN)NC(=O)[C@H](CC(=O)O)NC(=O)[C@H](CC(N)=O)NC(=O)[C@H](CC(=O)O)NC(=O)[C@@H]2CCCN2C1=O [compound 449] (H-DCLGFWRKCIPDNDKCCRPNLVCSRTHKWCKWVF-NH2; disulfide 2-17, 9-23, 16-30)
IC50 (hNav1.3; use-dependent block, hNav1.3): 0.01 µM | IC50 (hNav1.5; use-dependent block, hNav1.5): 2.93 µM | IC50 (hNav1.7; use-dependent block, hNav1.7): 0.03 µM

CC[C@H](C)[C@@H]1NC(=O)[C@@H]2CSSC[C@@H]3NC(=O)[C@H](C(C)C)NC(=O)[C@H](CC(C)C)NC(=O)[C@H](CC(N)=O)NC(=O)[C@@H]4CCCN4C(=O)[C@H](CCCNC(=N)N)NC(=O)[C@H](CSSC[C@H](NC(=O)[C@@H](N)CC(=O)O)C(=O)N[C@@H](CC(C)C)C(=O)NCC(=O)N[C@@H](C)C(=O)N[C@@H](CCSC)C(=O)N[C@@H](CCCNC(=N)N)C(=O)N[C@@H](CCCCN)C(=O)N2)NC(=O)[C@H](CSSC[C@@H](C(=O)N[C@@H](CCCCN)C(=O)N[C@@H](Cc2ccc(O)cc2)C(=O)N[C@H](C(=O)N[C@@H](Cc2ccccc2)C(N)=O)C(C)C)NC(=O)[C@H](Cc2c[nH]c4ccccc24)NC(=O)[C@H](Cc2c[nH]cn2)NC(=O)[C@H](Cc2c[nH]cn2)NC(=O)[C@H]([C@@H](C)O)NC(=O)[C@H](CCCNC(=N)N)NC(=O)[C@H](CO)NC3=O)NC(=O)[C@H](CCCCN)NC(=O)[C@H](CC(=O)O)NC(=O)[C@H](CC(N)=O)NC(=O)[C@H](CC(=O)O)NC(=O)[C@@H]2CCCN2C1=O [compound 737] (H-DCLGAMRKCIPDNDKCCRPNLVCSRTHHWCKYVF-NH2; disulfide 2-17, 9-23, 16-30)
IC50 (hNav1.3; use-dependent block, hNav1.3): 1.6 µM | IC50 (hNav1.5; use-dependent block, hNav1.5): 19.2 µM | IC50 (hNav1.7; use-dependent block, hNav1.7): 0.4 µM

CC[C@H](C)[C@@H]1NC(=O)[C@@H]2CSSC[C@@H]3NC(=O)[C@H](C(C)C)NC(=O)[C@H](CC(C)C)NC(=O)[C@H](CC(N)=O)NC(=O)[C@@H]4CCCN4C(=O)[C@H](CCCNC(=N)N)NC(=O)[C@H](CSSC[C@H](NC(=O)[C@@H](N)CC(=O)O)C(=O)N[C@@H](CC(C)C)C(=O)NCC(=O)N[C@@H](Cc4ccccc4)C(=O)N[C@@H](CCSC)C(=O)N[C@@H](CCCNC(=N)N)C(=O)N[C@@H](CCCCN)C(=O)N2)NC(=O)[C@H](CSSC[C@@H](C(=O)N[C@@H](CCCCN)C(=O)N[C@@H](Cc2ccc(O)cc2)C(=O)N[C@H](C(=O)N[C@@H](Cc2ccccc2)C(N)=O)C(C)C)NC(=O)[C@H](Cc2c[nH]c4ccccc24)NC(=O)[C@H](CCCCN)NC(=O)[C@H](Cc2c[nH]cn2)NC(=O)[C@H](CO)NC(=O)[C@H](CCCNC(=N)N)NC(=O)[C@H](CO)NC3=O)NC(=O)[C@H](CCCCN)NC(=O)[C@H](CC(=O)O)NC(=O)[C@H](CC(N)=O)NC(=O)[C@H](CC(=O)O)NC(=O)[C@@H]2CCCN2C1=O [compound 338] (H-DCLGFMRKCIPDNDKCCRPNLVCSRSHKWCKYVF-NH2; disulfide 2-17, 9-23, 16-30)
IC50 (hNav1.3; Table 22, use, […]): 0.09 µM | IC50 (hNav1.5; Table 22, use, […]): 12.3 µM | IC50 (hNav1.7; Table 22, use, […]): 0.1 µM

CC[C@H](C)[C@@H]1NC(=O)[C@@H]2CSSC[C@@H]3NC(=O)[C@H](C(C)C)NC(=O)[C@H](CC(C)C)NC(=O)[C@H](CC(N)=O)NC(=O)[C@@H]4CCCN4C(=O)[C@H](CCCNC(=N)N)NC(=O)[C@H](CSSC[C@H](NC(=O)[C@@H](N)CC(=O)O)C(=O)N[C@@H](CC(C)C)C(=O)NCC(=O)N[C@@H](C)C(=O)N[C@@H](CC(C)C)C(=O)N[C@@H](CCCNC(=N)N)C(=O)N[C@@H](CCCCN)C(=O)N2)NC(=O)[C@H](CSSC[C@@H](C(=O)N[C@@H](CCCCN)C(=O)N[C@@H](Cc2ccc(O)cc2)C(=O)N[C@H](C(=O)N[C@@H](Cc2ccccc2)C(=O)O)C(C)C)NC(=O)[C@H](Cc2c[nH]c4ccccc24)NC(=O)[C@H](CCC(N)=O)NC(=O)[C@H](Cc2c[nH]cn2)NC(=O)[C@H]([C@@H](C)O)NC(=O)[C@H](CCCNC(=N)N)NC(=O)[C@H](CO)NC3=O)NC(=O)[C@H](CCCCN)NC(=O)[C@H](CC(=O)O)NC(=O)[C@H](CC(N)=O)NC(=O)[C@H](CC(=O)O)NC(=O)[C@@H]2CCCN2C1=O [compound 858] (H-DCLGALRKCIPDNDKCCRPNLVCSRTHQWCKYVF-OH; disulfide 2-17, 9-23, 16-30)
IC50 (hNav1.3; use-dependent block, hNav1.3): > 5 µM | IC50 (hNav1.5; use-dependent block, hNav1.5): > 5 µM | IC50 (hNav1.7; use-dependent block, hNav1.7): > 5 µM
